The source of these data is ChEMBL document CHEMBL3638533, “4-carboxybenzylamino derivatives as histone deacetylase inhibitors” (2015).

This assay has as its target Histone deacetylase 1 (Homo sapiens, UniProt Q13547). The assay is described as follows: Flag Assay: Novel compounds were tested for their ability to inhibit histone deacetylase, subtype 1 (HDAC1) using an in vitro deacetylation assay. The enzyme source for this assay was an epitope-tagged human HDAC1 complex immuno-purified from stably expressing mammalian cells. The substrate consisted of a commercial product containing an acetylated lysine side chain (BIOMOL Research Laboratories, Inc., Plymouth Meeting, Pa.). Upon deacetylation of the substrate by incubation with the purified HDAC1 complex, a fluorophore is produced that is directly proportional to the level of deacetylation.

A word on the IC50: it is the concentration that gives 50% inhibition. The low end stands for inhibition by little substance, the high end for a need for much substance.

Sequence of Histone deacetylase 1 (Q13547 whole entry): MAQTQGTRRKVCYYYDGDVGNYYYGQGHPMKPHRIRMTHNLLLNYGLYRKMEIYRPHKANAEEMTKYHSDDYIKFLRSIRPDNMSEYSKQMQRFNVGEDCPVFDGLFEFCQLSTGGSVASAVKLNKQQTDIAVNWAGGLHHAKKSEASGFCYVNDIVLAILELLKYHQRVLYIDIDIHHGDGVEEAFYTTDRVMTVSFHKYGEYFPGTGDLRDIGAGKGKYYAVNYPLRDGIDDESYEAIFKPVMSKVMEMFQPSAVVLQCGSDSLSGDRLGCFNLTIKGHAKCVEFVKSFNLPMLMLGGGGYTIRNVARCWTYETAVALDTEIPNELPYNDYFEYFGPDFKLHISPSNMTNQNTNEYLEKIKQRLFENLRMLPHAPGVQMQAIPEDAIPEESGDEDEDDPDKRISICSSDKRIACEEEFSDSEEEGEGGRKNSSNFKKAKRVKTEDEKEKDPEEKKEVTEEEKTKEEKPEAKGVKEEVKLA

On to `O=C(Nc1cc(-c2ccccc2)ccc1O)c1ccc(CNCCc2c[nH]cn2)cc1`, for which the IC50 came out at 2.5 µM.
